From patent US20120009280A1, “METHOD OF REDUCING THE RATE OF DEGRADATION OF A BIOLOGICAL MATERIAL” (Bio-Energy Ingredients Limited, priority 2009, published 2012) come the findings set out here.

One test concerns yeast. The test can be described thus: Yeast count of spent brewer's / wet distiller's grains stored at ambient temperature. The format is cell-based. As to the method: (§1) Samples of Portion 1 (“AR”), Portion 3 (“SO”) and Portion 5 (“SH”) were then delivered to a microbiological testing facility about 15 kilometres from the treatment laboratory. Each was tested for initial total microbial, yeast and mould counts, respectively.
(§2) Separate untreated samples were similarly stored under insect-proof screens at ambient temperature for seven days (as shown in Tables 1 and 2). During the trial period the ambient temperature ranged from 11 to 33 degrees C.
(§3) The free moisture content on the initial spent brewer's grains was determined to be 78.1% m/m. After exposure to the environment for seven days, all of the samples were tested at a South African National Accreditation System (SANAS) approved microbiological testing facility. Each was tested for total micro-organism, yeast and mould counts to determine the affect of the various treatments. A similar procedure to that described in K. A. Rosentrater et al, Food Bioprocess Technol (2008) was used for the microbiological evaluation.
(§4) At the laboratory, the samples were thoroughly mixed and initially split into a first portion (Portion 1) and a second portion (Portion 2). Portion 1 was left untreated. A sample of Portion 1, was delivered immediately to a microbiological testing facility about 15 kilometres away from the treatment laboratory and was tested for initial total microbial, yeast and mould counts, respectively. No water removal prior to treatment was done in this experiment as was the case in Example 8 wherein a similar wet material was partially dewatered by pressing and the residue treated with 10% (w/w/) calcium oxide.
(§5) Samples from Portion 2 were subjected to treatment with varying amounts of a powdered, commercially-available calcium oxide containing approximately 94% calcium oxide (CaO) as shown in Table 32. The treatments varied from 2.5 to 10% (w/w) calcium oxide addition. The samples were stored in batches (according to the calcium oxide treatment) under insect-proof screens at ambient temperature for fifty six days. Separate untreated samples were similarly stored under insect-proof screens at ambient temperature for a total of 56 days. During the trial period the ambient temperature ranged from 10 to 30 degrees C. As this period was the southern hemisphere spring/early summer, the humidity as well as ambient temperatures varied widely.
(§6) The free moisture content on the initial spent brewer's grains was determined to be 79.4% m/m. After exposure to the environment for seven days, all of the samples were tested at a South African National Accreditation System (SANAS) approved microbiological testing facility. Each was tested for total micro-organism, yeast and mould counts to determine the affect of the various treatments. A similar procedure to that described in K. A. Rosentrater et al, Food Bioprocess Technol (2008) was used for the microbiological evaluation.
(§7) Samples from each treatment were drawn every seven days. No further calcium oxide treatment or agitation took place after the initial mix. In each case the entire sample was isolated and delivered to the microbiological testing facility.
(§8) The calcium oxide treatment trial described in Example 9 wherein wet distiller's grains were treated with 2.5%, 5% and 10.0% calcium oxide, respectively, versus untreated material was repeated using lower doses of calcium oxide. In this trial the same source of wet distiller's grains (again with now partial water removal prior to treatment) was treated. Also, the same protocol as described in Example 9 was applied, but at lower doses of calcium oxide i.e. 0.5%, 1.0%, 1.5%, 2.0% and 2.5%, respectively, versus untreated material.
(§9) In this trial the same source of wet distiller's grains (again with now partial water removal prior to treatment) was treated. Also, the same protocol as described in Example 9 was applied.

For a further test, the system named is mould. The test can be described thus: Mould count of spent brewer's / wet distiller's grains stored at ambient temperature. It is filed as cell-based. As to the method: as §1, §2, §3, §4
as §5, with “The treatments varied from 2.5 to 10% (w/w) calcium oxide addition.” left out
as §6, §7, §8, §9

Structures are written as SMILES.

For `[Ca+2].[OH-].[OH-]` [(CaOH)2 powder], the “Yeast Count” value with yeast (dose 3.3% (w/w), week 8) is listed as below 10 cfu/gram; in the test with yeast (dose 6.6% (w/w), week 2), below 10 cfu/gram. Further, the “Mould Count” value with mould (dose 3.3% (w/w), week 0) is recorded as below 10 cfu/gram; in the test with mould (dose 3.3% (w/w), week 1), below 10 cfu/gram; in the test with mould (dose 3.3% (w/w), week 2), below 10 cfu/gram; in the test on mould (dose 3.3% (w/w), week 3) it was below 10 cfu/gram; with mould (dose 3.3% (w/w), week 4), below 10 cfu/gram; with mould (dose 3.3% (w/w), week 5), below 10 cfu/gram. In addition, the “Mould Count” value was below 10 cfu/gram in the test with mould (dose 3.3% (w/w), week 6); below 10 cfu/gram in the test with mould (dose 3.3% (w/w), week 7); below 10 cfu/gram in the test with mould (dose 3.3% (w/w), week 8); below 10 cfu/gram in the test on mould (dose 6.6% (w/w), week 0); below 10 cfu/gram with mould (dose 6.6% (w/w), week 1); below 10 cfu/gram in the test on mould (dose 6.6% (w/w), week 2). The “Mould Count” value is on record as below 10 cfu/gram in the test on mould (dose 6.6% (w/w), week 3); below 10 cfu/gram in the test on mould (dose 6.6% (w/w), week 4); below 10 cfu/gram in the test with mould (dose 6.6% (w/w), week 5); below 10 cfu/gram in the test with mould (dose 6.6% (w/w), week 6); below 10 cfu/gram in the test with mould (dose 6.6% (w/w), week 7); below 10 cfu/gram with mould (dose 6.6% (w/w), week 8). Besides, the “Mould Count” value in the test with mould (dose 6.6% (w/w), week 9) is reported as 10 cfu/gram.

As to `[Ca+2].[O-]CC(O)CO.[O-]CC(O)CO` [Ca-DGO granules], the “Yeast Count” value is recorded as below 10 cfu/gram in the test with yeast (dose 10% (w/w), week 3); below 10 cfu/gram in the test with yeast (dose 10% (w/w), week 4); 100 cfu/gram in the test on yeast (dose 10% (w/w), week 5); below 10 cfu/gram with yeast (dose 10% (w/w), week 6); below 10 cfu/gram in the test with yeast (dose 10% (w/w), week 9). For the same compound, the “Mould Count” value is below 10 cfu/gram in the test on mould (dose 10% (w/w), week 0); below 10 cfu/gram with mould (dose 10% (w/w), week 1); below 10 cfu/gram in the test with mould (dose 10% (w/w), week 2); below 10 cfu/gram in the test with mould (dose 10% (w/w), week 3); below 10 cfu/gram in the test on mould (dose 10% (w/w), week 4); below 10 cfu/gram with mould (dose 10% (w/w), week 5). Also, the “Mould Count” value with mould (dose 10% (w/w), week 6) is below 10 cfu/gram; with mould (dose 10% (w/w), week 7), 400 cfu/gram; in the test with mould (dose 10% (w/w), week 8), 250 cfu/gram; in the test on mould (dose 10% (w/w), week 9), below 10 cfu/gram; with mould (dose 15% (w/w), week 0) it was below 10 cfu/gram; with mould (dose 15% (w/w), week 1) it was below 10 cfu/gram. Also, the “Mould Count” value is below 10 cfu/gram in the test on mould (dose 15% (w/w), week 2); below 10 cfu/gram in the test with mould (dose 15% (w/w), week 3); below 10 cfu/gram with mould (dose 15% (w/w), week 4); below 10 cfu/gram in the test with mould (dose 15% (w/w), week 5); below 10 cfu/gram in the test with mould (dose 15% (w/w), week 6); below 10 cfu/gram with mould (dose 15% (w/w), week 7). Besides, the “Mould Count” value with mould (dose 15% (w/w), week 8) is below 10 cfu/gram; in the test on mould (dose 15% (w/w), week 9), below 10 cfu/gram.

On to `[Ca+2].[O-2]` [CaO powder], for which the “Yeast Count” value is on record as below 10 cfu/gram in the test on yeast (dose 10% (w/w), week 3); below 10 cfu/gram in the test on yeast (dose 10% (w/w), week 4); below 10 cfu/gram in the test with yeast (dose 10% (w/w), week 5); below 10 cfu/gram with yeast (dose 10% (w/w), week 6); below 10 cfu/gram with yeast (dose 10% (w/w), week 9). Moreover, the “Mould Count” value with mould (dose 5% (w/w), week 0) is reported as below 10 cfu/gram; in the test on mould (dose 5% (w/w), week 1), below 10 cfu/gram; in the test with mould (dose 5% (w/w), week 2), below 10 cfu/gram; with mould (dose 5% (w/w), week 3) it was below 10 cfu/gram; in the test on mould (dose 5% (w/w), week 4), below 10 cfu/gram; with mould (dose 5% (w/w), week 5) it was below 10 cfu/gram. Also, the “Mould Count” value was below 10 cfu/gram with mould (dose 5% (w/w), week 6); below 10 cfu/gram in the test with mould (dose 5% (w/w), week 7); below 10 cfu/gram in the test with mould (dose 5% (w/w), week 8); below 10 cfu/gram in the test with mould (dose 5% (w/w), week 9); below 10 cfu/gram in the test with mould (dose 10% (w/w), week 0); below 10 cfu/gram in the test with mould (dose 10% (w/w), week 1). Also, the “Mould Count” value in the test with mould (dose 10% (w/w), week 2) is below 10 cfu/gram; in the test with mould (dose 10% (w/w), week 3), below 10 cfu/gram; in the test with mould (dose 10% (w/w), week 4), below 10 cfu/gram; in the test with mould (dose 10% (w/w), week 5), below 10 cfu/gram; in the test with mould (dose 10% (w/w), week 6) it was below 10 cfu/gram; in the test on mould (dose 10% (w/w), week 7), 3500 cfu/gram. Also, the “Mould Count” value is below 10 cfu/gram with mould (dose 10% (w/w), week 8) and below 10 cfu/gram with mould (dose 10% (w/w), week 9).

As for `[Ca+2].[O-]CC(O)CO.[O-]CC(O)CO` [calcium diglyceroxide], the “Mould Count” value is listed as 10 cfu/gram in the test on mould (10% Ca-DGO (w/w) granules, week 1); below 10 cfu/gram with mould (10% Ca-DGO (w/w) granules, week 2); below 10 cfu/gram in the test with mould (10% Ca-DGO (w/w) granules, week 3); below 10 cfu/gram in the test with mould (10% Ca-DGO (w/w) granules, week 4); below 10 cfu/gram in the test on mould (10% Ca-DGO (w/w) granules, week 5); below 10 cfu/gram with mould (10% Ca-DGO (w/w) powder, week 1). Also, the “Mould Count” value with mould (10% Ca-DGO (w/w) powder, week 2) is below 10 cfu/gram; with mould (10% Ca-DGO (w/w) powder, week 3), below 10 cfu/gram; with mould (10% Ca-DGO (w/w) powder, week 4) it was 310 cfu/gram; in the test with mould (10% Ca-DGO (w/w) powder, week 5), 1020 cfu/gram; in the test with mould (20% Ca-DGO (w/w) powder, week 1), 10 cfu/gram; in the test with mould (20% Ca-DGO (w/w) powder, week 2), 10 cfu/gram. For the same compound, the “Mould Count” value with mould (20% Ca-DGO (w/w) powder, week 3) came to 10 cfu/gram; with mould (20% Ca-DGO (w/w) powder, week 4), 10 cfu/gram; in the test on mould (20% Ca-DGO (w/w) powder, week 5) it was 10 cfu/gram; in the test on mould (40% Ca-DGO (w/w) powder, week 1), 10 cfu/gram; with mould (40% Ca-DGO (w/w) powder, week 2), 10 cfu/gram; in the test with mould (40% Ca-DGO (w/w) powder, week 3) it was 10 cfu/gram. Also, the “Mould Count” value with mould (40% Ca-DGO (w/w) powder, week 4) was 10 cfu/gram; in the test with mould (40% Ca-DGO (w/w) powder, week 5), 10 cfu/gram.
